Assay [1] in a line: Vero cell cytotoxicity, cytotoxicity control for M. tuberculosis inhibitor project, purified and synthesized samples, set 3 (AID 504684). It counts as functional. The following applies: […].
In assay [2] the target is Long-chain-fatty-acid--AMP ligase FadD28 (Mycobacterium tuberculosis, UniProt P9WQ59). As to the kind of experiment: Fluorescence polarization aasay to screen for inhibitors that compete for the binding of FadD28 to a bisubstrate Measured in Biochemical System Using Plate Reader - 2147-01_Inhibitor_Dose_CherryPick_Activity. The assay is classed as functional, Mycobacterium tuberculosis H37Rv.

A further assay addresses Nonstructural protein 1 (Influenza A virus, UniProt Q194T2). The assay is classed as functional, Influenza A virus (A/California/07/2009(H1N1)).
Assay [3] deals with T1, Microphthalmia-associated transcription factor (Homo sapiens, UniProt O75030).
T1 sequence (O75030 whole entry): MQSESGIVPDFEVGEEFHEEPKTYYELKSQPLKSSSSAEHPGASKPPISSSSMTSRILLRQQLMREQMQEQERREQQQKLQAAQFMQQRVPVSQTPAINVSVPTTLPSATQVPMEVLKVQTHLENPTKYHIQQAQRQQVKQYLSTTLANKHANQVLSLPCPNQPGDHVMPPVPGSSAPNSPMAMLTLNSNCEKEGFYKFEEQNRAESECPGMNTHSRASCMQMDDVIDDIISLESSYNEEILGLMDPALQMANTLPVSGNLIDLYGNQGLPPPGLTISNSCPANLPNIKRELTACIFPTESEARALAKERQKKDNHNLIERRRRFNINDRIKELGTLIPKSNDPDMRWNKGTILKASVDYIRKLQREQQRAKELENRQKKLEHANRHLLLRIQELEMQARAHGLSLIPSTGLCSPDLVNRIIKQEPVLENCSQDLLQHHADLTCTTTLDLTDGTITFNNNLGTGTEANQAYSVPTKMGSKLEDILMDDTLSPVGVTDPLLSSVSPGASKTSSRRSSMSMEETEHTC
In words: reducers of TRPM1 reporter luminescence, concentration series – cell-based, SK-MEL-5, cherry-picked, set 3, MITF inhibitor project, dose response (AID 493073).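 Note: SK-MEL-5 melanoma cells with luciferase driven by the MITF target TRPM1 promoter.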 It counts as functional.

Assay [4] can be described thus: cytotoxicity toward MDA-MB-231 breast cancer cells – cell-based, CellTiter-Glo luminescence, cherry-pick, cytotoxicity control for RAD54 inhibitor project, dose response (AID 651692). The assay is classed as functional.
For assay [5], the target named is T2, DNA repair and recombination protein RAD54-like (Homo sapiens, UniProt Q92698).
T2 sequence (Q92698 whole entry): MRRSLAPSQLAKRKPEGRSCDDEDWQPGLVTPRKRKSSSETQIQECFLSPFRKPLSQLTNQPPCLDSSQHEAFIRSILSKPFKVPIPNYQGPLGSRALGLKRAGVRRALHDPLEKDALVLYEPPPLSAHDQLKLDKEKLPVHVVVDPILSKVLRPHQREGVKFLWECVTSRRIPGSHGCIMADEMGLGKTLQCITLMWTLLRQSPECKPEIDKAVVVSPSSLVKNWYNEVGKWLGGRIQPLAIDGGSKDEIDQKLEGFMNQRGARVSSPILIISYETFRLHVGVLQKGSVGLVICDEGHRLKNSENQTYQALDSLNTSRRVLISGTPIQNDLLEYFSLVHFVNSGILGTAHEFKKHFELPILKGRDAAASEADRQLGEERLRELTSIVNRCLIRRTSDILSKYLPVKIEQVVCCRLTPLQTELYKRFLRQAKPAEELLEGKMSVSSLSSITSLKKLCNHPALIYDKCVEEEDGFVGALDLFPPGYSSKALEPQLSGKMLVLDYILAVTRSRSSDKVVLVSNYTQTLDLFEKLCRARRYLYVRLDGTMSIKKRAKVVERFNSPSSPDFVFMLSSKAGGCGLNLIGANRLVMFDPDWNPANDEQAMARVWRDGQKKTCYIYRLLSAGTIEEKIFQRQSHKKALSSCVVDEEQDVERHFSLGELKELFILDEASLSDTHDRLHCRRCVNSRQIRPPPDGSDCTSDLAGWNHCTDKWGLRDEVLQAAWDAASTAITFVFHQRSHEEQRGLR
In words: RAD54 Holliday junction migration blockers – biochemical, fluorescence, cherry-picked samples, dose series, confirmation (AID 651657). It counts as functional.

The target in assay [6] is T3, DNA repair protein RAD52 homolog (Homo sapiens, UniProt P43351).
T3 sequence (P43351 whole entry): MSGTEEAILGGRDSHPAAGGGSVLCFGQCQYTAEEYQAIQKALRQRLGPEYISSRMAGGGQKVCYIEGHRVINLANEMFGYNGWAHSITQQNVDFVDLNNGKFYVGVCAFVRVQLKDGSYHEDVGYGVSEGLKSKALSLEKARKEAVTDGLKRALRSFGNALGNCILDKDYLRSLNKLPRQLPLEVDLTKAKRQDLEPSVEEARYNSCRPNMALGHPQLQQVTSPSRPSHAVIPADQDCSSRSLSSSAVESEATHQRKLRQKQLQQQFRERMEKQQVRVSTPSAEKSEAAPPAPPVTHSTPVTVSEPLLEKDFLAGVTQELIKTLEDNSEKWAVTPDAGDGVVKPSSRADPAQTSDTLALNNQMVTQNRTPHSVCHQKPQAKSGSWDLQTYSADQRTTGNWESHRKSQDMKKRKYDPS
The assay is classed as functional, biochemical.

A short description of assay [7]: A Cell Based Secondary Assay To Explore Cytotoxicity of Compounds that Sensitize Mycobacterium Tuberculosis to Beta-Lactam Antibiotics. It counts as functional.
Assay [8] deals with ADP-ribosylation factor GTPase-activating protein 1 (Rattus norvegicus, UniProt Q62848). As to the kind of experiment: Fluorescence polarization-based biochemical high throughput dose response screening assay to identify inhibitors of ADP-ribosylation factor GTPase activating protein 1 (ARFGAP1). The assay is classed as functional.
Sequence of ADP-ribosylation factor GTPase-activating protein 1 (Q62848 whole entry, the tested form may be a part): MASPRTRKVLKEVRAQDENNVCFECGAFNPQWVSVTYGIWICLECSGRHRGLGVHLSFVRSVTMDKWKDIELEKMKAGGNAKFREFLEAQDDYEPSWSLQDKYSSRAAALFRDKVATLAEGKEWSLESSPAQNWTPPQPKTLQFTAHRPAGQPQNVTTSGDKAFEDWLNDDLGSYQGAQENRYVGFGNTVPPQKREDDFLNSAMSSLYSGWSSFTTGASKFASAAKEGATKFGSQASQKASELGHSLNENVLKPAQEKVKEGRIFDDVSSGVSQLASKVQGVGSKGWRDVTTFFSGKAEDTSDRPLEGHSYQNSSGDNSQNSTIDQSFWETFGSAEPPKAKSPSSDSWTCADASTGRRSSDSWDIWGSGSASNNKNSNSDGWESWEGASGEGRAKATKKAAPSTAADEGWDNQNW
Assay [9] has as its target Arf-GAP with SH3 domain, ANK repeat and PH domain-containing protein 1 (Homo sapiens, UniProt Q9ULH1). It counts as functional.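 Note: biochemical fluorescence polarization dose–response screen measuring inhibition of ASAP1; ASAP1 GAP domain stimulating GTP hydrolysis by truncated human ARF1.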
The target of assay [10] is T4, Carboxy-terminal domain RNA polymerase II polypeptide A small phosphatase 1 (Homo sapiens, UniProt Q9GZU7).
T4 sequence (Q9GZU7 whole entry): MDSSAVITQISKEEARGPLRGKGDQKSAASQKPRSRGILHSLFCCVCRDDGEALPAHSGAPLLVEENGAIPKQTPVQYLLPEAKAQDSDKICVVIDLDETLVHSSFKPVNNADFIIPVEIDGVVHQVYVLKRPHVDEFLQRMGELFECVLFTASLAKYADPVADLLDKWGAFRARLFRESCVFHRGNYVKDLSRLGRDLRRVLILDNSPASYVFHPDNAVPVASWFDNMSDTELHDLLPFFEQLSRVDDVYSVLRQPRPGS
As to the kind of experiment: CTDSP1 inhibitors, concentration-response, biochemical, absorbance readout, ultra-high-throughput screen actives (AID 540297). It counts as functional.

Assay [11] concerns the target Tyrosine-protein phosphatase non-receptor type 11 (Homo sapiens, UniProt Q06124). As to the kind of experiment: PTPN11 enzyme inhibitors – biochemical, selectivity assay for STEP inhibitor project, dose response (AID 602367). It counts as functional. The following applies: read-out: IC50_Mean.
Assay [12] concerns the target Tyrosine-protein phosphatase non-receptor type 5 (Homo sapiens, UniProt P54829). As to the kind of experiment: PTPN5 enzyme inhibition – biochemical, fluorescence intensity, uHTS hits, confirmation (AID 602372). It counts as functional. The conditions noted are these: read-out: IC50_Mean.
Assay [13] deals with Dual specificity protein phosphatase 3 (Homo sapiens, UniProt P51452). As to the kind of experiment: VHR phosphatase inhibition, dose response, selectivity assay for STEP inhibitor project, biochemical (AID 602374). It counts as functional. The following applies: read-out: IC50_Mean.
Sequence of Dual specificity protein phosphatase 3 (P51452 whole entry): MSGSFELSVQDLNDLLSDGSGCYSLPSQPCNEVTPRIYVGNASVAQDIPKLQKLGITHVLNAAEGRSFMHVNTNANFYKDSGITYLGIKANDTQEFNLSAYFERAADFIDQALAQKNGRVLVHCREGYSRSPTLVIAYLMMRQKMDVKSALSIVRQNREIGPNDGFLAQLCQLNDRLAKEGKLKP
Assay [14] deals with T5, Tyrosine-protein phosphatase non-receptor type 22 (Homo sapiens, UniProt Q9Y2R2).
T5 sequence (Q9Y2R2 whole entry): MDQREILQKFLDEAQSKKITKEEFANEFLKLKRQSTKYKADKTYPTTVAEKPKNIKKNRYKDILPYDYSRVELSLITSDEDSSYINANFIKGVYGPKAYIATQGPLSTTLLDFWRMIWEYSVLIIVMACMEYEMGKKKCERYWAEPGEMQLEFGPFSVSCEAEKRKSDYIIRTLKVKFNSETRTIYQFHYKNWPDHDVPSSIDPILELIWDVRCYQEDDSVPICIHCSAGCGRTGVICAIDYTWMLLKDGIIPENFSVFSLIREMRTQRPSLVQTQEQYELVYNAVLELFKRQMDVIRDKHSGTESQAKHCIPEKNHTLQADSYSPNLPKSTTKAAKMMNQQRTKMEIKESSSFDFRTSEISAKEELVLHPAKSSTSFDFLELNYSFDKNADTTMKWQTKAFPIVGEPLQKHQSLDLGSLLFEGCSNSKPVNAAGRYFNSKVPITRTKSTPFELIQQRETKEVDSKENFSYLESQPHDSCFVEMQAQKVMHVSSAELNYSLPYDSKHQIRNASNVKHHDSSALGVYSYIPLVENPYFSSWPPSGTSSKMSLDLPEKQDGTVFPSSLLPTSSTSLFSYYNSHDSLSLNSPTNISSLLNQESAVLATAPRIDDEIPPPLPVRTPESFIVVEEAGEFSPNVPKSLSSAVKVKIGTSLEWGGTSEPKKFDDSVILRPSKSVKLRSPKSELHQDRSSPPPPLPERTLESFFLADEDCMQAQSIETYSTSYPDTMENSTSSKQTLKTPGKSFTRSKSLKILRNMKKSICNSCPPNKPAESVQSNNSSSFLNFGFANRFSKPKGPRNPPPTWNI
In words: lymphoid phosphatase LYP inhibitors – biochemical, selectivity assay for STEP inhibitor project, dose response (AID 624241). It counts as functional.

The target in assay [15] is Low molecular weight phosphotyrosine protein phosphatase (Homo sapiens, UniProt P24666). It counts as functional. The following applies: read-out: IC50_Mean.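 Note: Dose-response confirmation assay measuring inhibition of LMPTP enzyme activity by fluorescence intensity read-out.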
Sequence of Low molecular weight phosphotyrosine protein phosphatase (P24666 whole entry): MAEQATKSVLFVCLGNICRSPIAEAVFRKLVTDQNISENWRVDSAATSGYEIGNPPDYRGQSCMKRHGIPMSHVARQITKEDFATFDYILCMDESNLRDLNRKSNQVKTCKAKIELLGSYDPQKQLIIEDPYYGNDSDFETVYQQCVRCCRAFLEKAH
For the next assay, the system named is H9c2. In words: cells. The assay is classed as functional, cell-based. The following applies: Rattus norvegicus, H9c2, Myocardium.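 Note: confirmatory concentration-response retest of ultra-high-throughput screening hits for modulation of myocardial damage; cell death induced by hydrogen peroxide oxidative stress; compound pretreatment for 60 min then peroxide exposure for 2 h; potency is for protecting the cells against peroxide damage rather than for killing them.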
The target of a further assay is Protein S100-A4 (Homo sapiens, UniProt P26447). In words: human S100A4 peptide interaction inhibition curves – biochemical, fluorescence polarization, cherry-picked hits, dose response (AID 687001). It counts as functional.
Sequence of Protein S100-A4 (P26447 whole entry): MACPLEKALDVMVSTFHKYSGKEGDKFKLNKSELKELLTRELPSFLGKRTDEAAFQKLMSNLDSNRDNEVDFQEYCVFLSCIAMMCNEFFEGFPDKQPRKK
Assay [16] addresses T6, ATP-dependent translocase ABCB1 (Homo sapiens, UniProt P08183). As to the kind of experiment: inhibition of BCRP-mediated JC-1 efflux – Ig-MXP3 cells, flow cytometry, set 2, dose response (AID 504566).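 Note: flow cytometry median green fluorescence of retained JC-1 dye; potency of efflux pump inhibition measured as rising substrate retention.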 It counts as functional. The following applies: read-out: EC50_MICROM_.
Assay [17] addresses T6, ATP-dependent translocase ABCB1. In words: P-gp JC-1 efflux blockade concentration-response – Jurkat-DNR cells, flow cytometry, set 2, dose response (AID 504569).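 Note: potency of pump inhibitors that raise cellular JC-1 green fluorescence up to the nicardipine level.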 The following applies: read-out: EC50_MICROM_. It counts as functional.
The target in assay [18] is Luciferin 4-monooxygenase (Photinus pyralis, UniProt P08659). As to the kind of experiment: inhibition of purified Photinus pyralis luciferase – biochemical, luminescence, dose response (AID 1891).
Sequence of Luciferin 4-monooxygenase (P08659 whole entry): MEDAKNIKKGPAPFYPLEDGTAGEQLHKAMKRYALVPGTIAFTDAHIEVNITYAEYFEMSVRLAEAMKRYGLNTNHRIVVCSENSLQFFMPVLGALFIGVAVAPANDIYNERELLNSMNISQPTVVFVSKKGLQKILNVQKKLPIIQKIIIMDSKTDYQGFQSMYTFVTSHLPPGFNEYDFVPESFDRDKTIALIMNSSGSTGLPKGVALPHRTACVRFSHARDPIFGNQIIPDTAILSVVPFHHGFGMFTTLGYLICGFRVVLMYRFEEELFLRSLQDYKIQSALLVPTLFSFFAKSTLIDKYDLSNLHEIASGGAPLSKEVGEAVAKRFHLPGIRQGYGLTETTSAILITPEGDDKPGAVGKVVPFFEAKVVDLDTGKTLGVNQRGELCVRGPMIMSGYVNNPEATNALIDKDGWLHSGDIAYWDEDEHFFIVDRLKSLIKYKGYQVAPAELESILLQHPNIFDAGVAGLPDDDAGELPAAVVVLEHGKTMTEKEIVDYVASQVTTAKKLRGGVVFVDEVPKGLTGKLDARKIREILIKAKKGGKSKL
Assay [19] in a line: Luminescence Cell-Based Dose Confirmation HTS to Identify Inhibitors of Platelet Dense Granule Release. [Related pubchem assays: 1663 (Primary HTS), 1678 (Summary of Project)]. The assay is classed as functional.
Assay [20] can be described thus: inhibition of ARNT PAS-B/TACC3 complex formation – biochemical, AlphaScreen, cherry-picked samples, confirmation (AID 651703).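 Note: His-tagged ARNT PAS-B domain paired with GST-TACC3 E629A dimer coactivator fragment; potency of inhibitors that break up the complex and lower AlphaScreen signal.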 It counts as functional, Homo sapiens.

Active and inactive are the calls of the source.

The values below come from ChEMBL document CHEMBL1201862, “PubChem BioAssay data set” (2004).

T6 sequence (P08183 whole entry): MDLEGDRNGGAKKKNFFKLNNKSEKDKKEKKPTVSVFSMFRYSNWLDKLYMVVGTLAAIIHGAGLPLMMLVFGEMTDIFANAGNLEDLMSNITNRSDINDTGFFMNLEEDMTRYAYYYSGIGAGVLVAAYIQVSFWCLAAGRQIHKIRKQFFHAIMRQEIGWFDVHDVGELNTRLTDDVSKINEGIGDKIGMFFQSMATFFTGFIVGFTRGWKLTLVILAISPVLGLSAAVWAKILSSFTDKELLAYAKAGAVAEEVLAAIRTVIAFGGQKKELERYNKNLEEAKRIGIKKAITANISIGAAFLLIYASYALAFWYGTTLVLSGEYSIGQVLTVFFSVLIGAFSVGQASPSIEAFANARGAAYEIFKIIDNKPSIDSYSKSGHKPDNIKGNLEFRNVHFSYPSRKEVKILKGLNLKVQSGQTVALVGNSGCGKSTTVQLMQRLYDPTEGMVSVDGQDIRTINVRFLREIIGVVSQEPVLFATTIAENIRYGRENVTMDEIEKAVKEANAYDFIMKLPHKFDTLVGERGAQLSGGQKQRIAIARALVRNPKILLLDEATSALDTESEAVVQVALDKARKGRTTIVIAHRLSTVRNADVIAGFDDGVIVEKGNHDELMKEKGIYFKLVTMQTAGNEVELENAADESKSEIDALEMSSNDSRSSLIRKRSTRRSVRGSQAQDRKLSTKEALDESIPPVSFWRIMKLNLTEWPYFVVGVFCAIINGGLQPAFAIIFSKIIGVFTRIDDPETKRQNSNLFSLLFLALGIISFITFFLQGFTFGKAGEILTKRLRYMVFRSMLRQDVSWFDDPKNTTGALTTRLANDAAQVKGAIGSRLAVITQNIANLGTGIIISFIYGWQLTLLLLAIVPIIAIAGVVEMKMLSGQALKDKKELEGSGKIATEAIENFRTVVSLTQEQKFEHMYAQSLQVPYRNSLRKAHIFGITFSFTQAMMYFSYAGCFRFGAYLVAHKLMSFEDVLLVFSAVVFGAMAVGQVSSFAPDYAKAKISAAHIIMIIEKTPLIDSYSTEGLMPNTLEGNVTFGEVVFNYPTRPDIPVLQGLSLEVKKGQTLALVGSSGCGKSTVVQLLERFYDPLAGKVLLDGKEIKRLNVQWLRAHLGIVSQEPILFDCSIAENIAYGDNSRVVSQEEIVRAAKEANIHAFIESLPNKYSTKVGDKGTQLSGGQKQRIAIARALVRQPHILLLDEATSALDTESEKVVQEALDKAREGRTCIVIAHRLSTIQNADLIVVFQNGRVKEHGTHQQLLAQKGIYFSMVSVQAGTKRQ
Sequence of Nonstructural protein 1 (Q194T2 whole entry): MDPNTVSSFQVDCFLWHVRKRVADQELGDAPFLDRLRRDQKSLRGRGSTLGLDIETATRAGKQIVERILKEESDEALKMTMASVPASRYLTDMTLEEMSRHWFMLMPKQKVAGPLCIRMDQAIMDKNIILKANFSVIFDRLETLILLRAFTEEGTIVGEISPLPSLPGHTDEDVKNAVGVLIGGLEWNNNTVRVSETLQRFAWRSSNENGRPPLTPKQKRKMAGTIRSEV
Sequence of Arf-GAP with SH3 domain, ANK repeat and PH domain-containing protein 1 (Q9ULH1 whole entry, the tested form may be a part): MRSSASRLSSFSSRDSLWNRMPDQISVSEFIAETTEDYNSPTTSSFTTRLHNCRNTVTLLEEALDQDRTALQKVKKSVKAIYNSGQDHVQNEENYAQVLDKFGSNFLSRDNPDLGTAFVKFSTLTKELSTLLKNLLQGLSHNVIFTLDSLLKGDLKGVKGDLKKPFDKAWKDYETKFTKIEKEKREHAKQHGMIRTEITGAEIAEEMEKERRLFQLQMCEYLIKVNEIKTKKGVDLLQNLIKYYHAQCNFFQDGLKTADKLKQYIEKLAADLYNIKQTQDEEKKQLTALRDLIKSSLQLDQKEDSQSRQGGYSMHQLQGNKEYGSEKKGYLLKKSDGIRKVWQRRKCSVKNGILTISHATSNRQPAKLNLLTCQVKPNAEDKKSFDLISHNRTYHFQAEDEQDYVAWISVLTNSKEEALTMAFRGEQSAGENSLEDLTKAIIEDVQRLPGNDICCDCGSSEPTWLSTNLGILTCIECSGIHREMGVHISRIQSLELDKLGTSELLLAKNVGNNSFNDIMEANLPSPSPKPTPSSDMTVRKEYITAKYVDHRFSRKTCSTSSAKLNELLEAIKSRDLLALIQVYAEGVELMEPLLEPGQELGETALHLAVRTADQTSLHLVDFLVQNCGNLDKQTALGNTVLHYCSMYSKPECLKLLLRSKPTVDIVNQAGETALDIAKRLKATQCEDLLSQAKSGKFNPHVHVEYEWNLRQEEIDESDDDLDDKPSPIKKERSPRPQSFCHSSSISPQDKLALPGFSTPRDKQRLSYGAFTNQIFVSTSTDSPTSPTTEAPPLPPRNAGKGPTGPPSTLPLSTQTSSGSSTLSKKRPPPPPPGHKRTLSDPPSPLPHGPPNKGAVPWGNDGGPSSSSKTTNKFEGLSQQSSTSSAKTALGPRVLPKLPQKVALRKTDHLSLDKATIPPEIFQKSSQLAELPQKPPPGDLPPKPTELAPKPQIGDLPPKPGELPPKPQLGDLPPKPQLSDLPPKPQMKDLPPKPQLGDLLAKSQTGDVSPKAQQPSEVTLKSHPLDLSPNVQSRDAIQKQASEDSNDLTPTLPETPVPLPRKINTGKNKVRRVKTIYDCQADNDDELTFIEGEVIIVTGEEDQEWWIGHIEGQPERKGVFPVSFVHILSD
Sequence of Tyrosine-protein phosphatase non-receptor type 5 (P54829 whole entry): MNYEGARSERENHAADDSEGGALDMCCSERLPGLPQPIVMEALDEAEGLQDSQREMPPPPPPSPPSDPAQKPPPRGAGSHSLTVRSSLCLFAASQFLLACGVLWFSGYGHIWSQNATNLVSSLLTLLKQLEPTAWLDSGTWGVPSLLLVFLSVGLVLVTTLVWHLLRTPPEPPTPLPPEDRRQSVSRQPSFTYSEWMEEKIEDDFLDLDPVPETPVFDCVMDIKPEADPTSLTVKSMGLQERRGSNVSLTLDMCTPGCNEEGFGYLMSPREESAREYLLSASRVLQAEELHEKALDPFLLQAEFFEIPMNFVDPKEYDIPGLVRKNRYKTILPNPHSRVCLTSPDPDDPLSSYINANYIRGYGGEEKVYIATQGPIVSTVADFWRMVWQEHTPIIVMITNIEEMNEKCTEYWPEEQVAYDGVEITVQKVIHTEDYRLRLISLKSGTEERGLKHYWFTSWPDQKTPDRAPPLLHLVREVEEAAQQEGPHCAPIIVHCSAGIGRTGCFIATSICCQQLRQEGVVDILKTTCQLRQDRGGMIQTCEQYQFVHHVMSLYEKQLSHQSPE

For the compound `O=c1[nH]c(S)nc2ccccc12`, in [1], the CC50 is > 100 µM (active).
As for `Cc1ccc(CSCCNC(=O)c2ccc(N(C)S(=O)(=O)c3ccccc3)cc2)cc1`, the AC50 in assay [2] is 7.13 µM (active).
Consider `CCN1CCCC1CNC(=O)c1ccc2c(c1)NC(=O)/C(=C\c1ccc(OC)c(OC)c1)S2` (stereo not drawn), for which the IC50 on Nonstructural protein 1 is 81.9 µM (active). Moreover, the concentration at half-maximal activity (AC50) is 13.8 µM (active) in assay [3], 36.4 µM (active) in [4], 12.6 µM (active) in [5] and 3.24 µM (active) in assay [6].
`Cc1cccc(NC(=O)Cn2cnc3c(oc4ccccc43)c2=O)c1C`: in assay [7], the CC50 was > 40 µM (active). Besides, in assay [8], the IC50 is 28.7 µM (inactive).
As for `COc1cc(/C=C2/SC(N)=NC2=O)ccc1Oc1ccc([N+](=O)[O-])cc1[N+](=O)[O-]`, in [9], the IC50 was 54.9 µM (inactive).
`CCOC(=O)CN1C(=O)S/C(=C/c2ccc(OCc3ccc(C(=O)O)cc3)cc2)C1=O`: the IC50 was 3.74 µM (active) in assay [10]; 3.24 µM (active) in assay [11]; 25.4 µM (inactive) in assay [12]; 4.27 µM (active) in assay [13]; 50.6 µM (inactive) in assay [14].
For the compound `O=C(COc1ccccc1)Nc1sc2c(c1C(=O)NCc1cccnc1)CCCC2`, the IC50 in assay [15] was 21.3 µM (inactive).
With `O=C1C=C(N2CCOCC2)c2cccc3cccc1c23`, in the assay on H9c2, the IC50 was 18.2 µM (active). Further, the AC50 at Protein S100-A4 is 4.83 µM (active).
With `O=C(c1ccccc1)N1CCN(c2cc(-c3ccccc3)nc3cc(-c4ccc(F)cc4)nn23)CC1`, the EC50 was 2.35 µM (active) in [16] and 5.63 µM (active) in assay [17].
Regarding `CCOc1ccc(Nc2cc3n(c(=O)n2)CCc2cc(OC)c(OC)cc2-3)cc1`, the EC50 in assay [18] is > 112 µM (not active); in assay [19], 12.5 µM (active). Moreover, in assay [20], the AC50 was 102 µM (active).
